Laboratory results from ChEMBL document CHEMBL1240532, “Spiroindolones, a potent compound class for the treatment of malaria” (Science, 2010).

Tests used:
Plasmodium berghei [1] = experiment: Antimalarial activity against Plasmodium berghei GFP ANKA infected in NMRI mice (Mus musculus) assessed as survival at 50 mg/kg, perorally administered through 0.5% MCM/0.1%solutol HS15 formulation 24 hrs post infection for 3 days measured 96 hrs post infection; assay type: functional; details: route oral
[2] = AUC (0 to infinity) in CD1 mouse at 24.6 mg/kg, po; assay type: ADME, organism-based; parameters: time infinity, dose 24.6 mg/kg, route oral; details: plasma
[3] = Partition coefficient, log P of the compound at pH 7.4; assay type: physicochemical; details: octanol/water
[4] = Cmax in Wistar rat at 23.7 mg/kg, po; assay type: ADME, organism-based; parameters: dose 23.7 mg/kg, route oral; details: in vivo
Substance-P receptor = Substance-P receptor (Homo sapiens, UniProt P25103); experiment: Binding affinity to human recombinant neurokinin NK1 receptor
[5] = biological target: Corticotropin-releasing factor receptor 1 (Homo sapiens, UniProt P34998); experiment: Binding affinity to human recombinant CRF1 receptor
[6] = biological target: Gastrin/cholecystokinin type B receptor (Homo sapiens, UniProt P32239); experiment: Binding affinity to human recombinant cholecystokinin B receptor
Thromboxane A2 receptor = Thromboxane A2 receptor (Homo sapiens, UniProt P21731); experiment: Binding affinity to human recombinant thromboxane A2 receptor
B2 bradykinin receptor = B2 bradykinin receptor (Homo sapiens, UniProt P30411); experiment: Binding affinity to human recombinant bradykinin B2 receptor
Plasmodium berghei [7] = experiment: Antimalarial activity against Plasmodium berghei GFP ANKA infected in NMRI mice (Mus musculus) assessed as cure rate at 50 mg/kg, perorally administered through 0.5% MCM/0.1%solutol HS15 formulation 24 hrs post infection for 3 days measured on day 30 post infection; assay type: functional; details: route oral
Plasmodium falciparum [8] = experiment: microbe, parasite or virus in culture; details: Dd2, 72 h
Plasmodium berghei [9] = experiment: Antimalarial activity against Plasmodium berghei GFP ANKA infected in NMRI mice (Mus musculus) assessed as survival at 10 mg/kg, perorally administered as single dose as single dose 24 hrs post infection for 1 day measured 72 hrs post infection; assay type: functional; details: route oral
Histamine H2 receptor = Histamine H2 receptor (Homo sapiens, UniProt P25021); experiment: Binding affinity to human recombinant histamine H2 receptor
[10] = biological target: Neuropeptide Y receptor type 1 (Homo sapiens, UniProt P25929); experiment: Binding affinity to human recombinant neuropeptide Y1 receptor
Plasmodium falciparum [11] = experiment: Antimalarial activity against NITD609-resistant Plasmodium falciparum Dd2 Clone2 bearing P-type ATPase4 T418N and P990R mutations after 72 hrs by SYBR green based fluorescence assay; assay type: functional, organism-based; details: Dd2, 72 h
[12] = biological target: Delta-type opioid receptor (Homo sapiens, UniProt P41143); experiment: Binding affinity to human recombinant opiate delta receptor
[13] = Cytotoxicity against human THP1 cells after 4 days by XTT assay; assay type: cell-based; details: THP-1 cells
Androgen receptor = Androgen receptor (Homo sapiens, UniProt P10275); experiment: Binding affinity to human recombinant androgen receptor
[14] = biological target: Beta-2 adrenergic receptor (Homo sapiens, UniProt P07550); experiment: Binding affinity to human recombinant adrenergic beta2 receptor
Plasmodium berghei [15] = experiment: Antimalarial activity against Plasmodium berghei GFP ANKA infected in NMRI mice (Mus musculus) assessed as cure rate at 30 mg/kg, perorally administered as single dose 24 hrs post infection for 1 day measured 30 days post infection; assay type: functional; details: route oral
[16] = biological target: Neurotensin receptor type 1 (Homo sapiens, UniProt P30989); experiment: Binding affinity to human recombinant neurotensin NT1 receptor
Plasmodium falciparum [17] = experiment: Antimalarial activity against Plasmodium falciparum D6 after 48 hrs incubation by [3H]hypoxanthin incorporation assay
Glucocorticoid receptor = Glucocorticoid receptor (Homo sapiens, UniProt P04150); experiment: Binding affinity to human recombinant glucocorticoid receptor
[18] = Cytotoxicity against human HepG2 cells after 4 days by XTT assay; assay type: cell-based
[19] = Tmax in CD1 mouse at 24.6 mg/kg, po; assay type: ADME, organism-based; parameters: dose 24.6 mg/kg, route oral; details: in vivo
Estrogen receptor = Estrogen receptor (Homo sapiens, UniProt P03372); experiment: Binding affinity to human recombinant ERalpha
[20] = Clearance in Wistar rat at 5 mg/kg, iv; assay type: ADME, organism-based; parameters: dose 5 mg/kg, route intravenous; details: in vivo
[21] = biological target: Sodium-dependent serotonin transporter (Homo sapiens, UniProt P31645); experiment: Binding affinity to human recombinant serotonin transporter
[22] = biological target: Alpha-2B adrenergic receptor (Homo sapiens, UniProt P18089); experiment: Binding affinity to human recombinant alpha2b receptor
Histamine H3 receptor = Histamine H3 receptor (Homo sapiens, UniProt Q9Y5N1); experiment: Binding affinity to human recombinant histamine H3 receptor
Phosphodiesterase 3 = Phosphodiesterase 3 (Homo sapiens, UniProt Q14432+Q13370); experiment: Binding affinity to human recombinant PDE3; assay type: protein assay
Plasmodium falciparum [23] = experiment: Antimalarial activity against NITD609-resistant Plasmodium falciparum Dd2 Clone1 bearing P-type ATPase4 I398F and P990R mutations after 72 hrs by SYBR green based fluorescence assay; assay type: functional, organism-based; details: Dd2, 72 h
[24] = biological target: Prostaglandin G/H synthase 2 (Homo sapiens, UniProt P35354); experiment: Binding affinity to human recombinant COX2
D(1A) dopamine receptor = D(1A) dopamine receptor (Homo sapiens, UniProt P21728); experiment: Binding affinity to human recombinant dopamine D1 receptor
[25] = AUC (0 to infinity) in CD1 mouse at 5.4 mg/kg, iv; assay type: ADME, organism-based; parameters: time infinity, dose 5.4 mg/kg, route intravenous; details: plasma
[26] = Binding affinity to rat N-type calcium channel
[27] = biological target: 5-hydroxytryptamine receptor 3A (Homo sapiens, UniProt P46098); experiment: Binding affinity to human recombinant serotonin 5HT3 receptor
[28] = biological target: 5-hydroxytryptamine receptor 2B (Homo sapiens, UniProt P41595); experiment: Binding affinity to human recombinant serotonin 5-HT2B receptor
5-hydroxytryptamine receptor 2B, sequence (P41595 whole entry): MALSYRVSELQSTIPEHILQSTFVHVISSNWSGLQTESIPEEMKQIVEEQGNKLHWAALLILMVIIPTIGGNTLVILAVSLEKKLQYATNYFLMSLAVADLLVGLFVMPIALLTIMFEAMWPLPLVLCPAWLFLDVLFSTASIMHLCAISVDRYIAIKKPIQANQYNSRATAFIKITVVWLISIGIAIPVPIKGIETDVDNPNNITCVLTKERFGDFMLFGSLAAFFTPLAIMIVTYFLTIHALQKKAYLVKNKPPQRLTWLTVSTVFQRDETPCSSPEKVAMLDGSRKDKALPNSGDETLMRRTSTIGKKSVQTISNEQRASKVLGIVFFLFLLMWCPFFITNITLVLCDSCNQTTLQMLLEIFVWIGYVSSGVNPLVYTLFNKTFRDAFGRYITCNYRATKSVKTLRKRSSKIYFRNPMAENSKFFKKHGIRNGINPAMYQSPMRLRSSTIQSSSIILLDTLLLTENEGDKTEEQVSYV

Thromboxane A2 receptor, sequence (P21731 whole entry): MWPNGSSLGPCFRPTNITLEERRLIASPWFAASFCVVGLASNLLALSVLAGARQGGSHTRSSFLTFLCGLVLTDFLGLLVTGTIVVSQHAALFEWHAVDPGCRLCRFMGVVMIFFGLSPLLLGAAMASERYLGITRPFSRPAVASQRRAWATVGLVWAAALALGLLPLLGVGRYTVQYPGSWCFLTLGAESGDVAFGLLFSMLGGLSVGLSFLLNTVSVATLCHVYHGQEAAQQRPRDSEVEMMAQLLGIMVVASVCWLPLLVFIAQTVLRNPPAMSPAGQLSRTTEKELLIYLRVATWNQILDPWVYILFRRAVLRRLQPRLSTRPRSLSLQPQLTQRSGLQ
Substance-P receptor, sequence (P25103 whole entry): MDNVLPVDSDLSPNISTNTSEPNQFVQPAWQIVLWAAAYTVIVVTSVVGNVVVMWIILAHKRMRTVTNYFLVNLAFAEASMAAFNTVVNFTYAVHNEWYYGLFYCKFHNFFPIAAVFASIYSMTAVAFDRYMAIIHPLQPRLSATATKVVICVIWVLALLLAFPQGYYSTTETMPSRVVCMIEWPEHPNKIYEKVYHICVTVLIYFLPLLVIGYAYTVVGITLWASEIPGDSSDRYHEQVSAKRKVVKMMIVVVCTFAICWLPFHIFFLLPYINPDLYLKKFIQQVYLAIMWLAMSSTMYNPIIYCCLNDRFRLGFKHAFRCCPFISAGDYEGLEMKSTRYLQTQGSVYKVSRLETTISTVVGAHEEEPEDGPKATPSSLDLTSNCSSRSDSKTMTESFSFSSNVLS
Sodium-dependent serotonin transporter, sequence (P31645 whole entry): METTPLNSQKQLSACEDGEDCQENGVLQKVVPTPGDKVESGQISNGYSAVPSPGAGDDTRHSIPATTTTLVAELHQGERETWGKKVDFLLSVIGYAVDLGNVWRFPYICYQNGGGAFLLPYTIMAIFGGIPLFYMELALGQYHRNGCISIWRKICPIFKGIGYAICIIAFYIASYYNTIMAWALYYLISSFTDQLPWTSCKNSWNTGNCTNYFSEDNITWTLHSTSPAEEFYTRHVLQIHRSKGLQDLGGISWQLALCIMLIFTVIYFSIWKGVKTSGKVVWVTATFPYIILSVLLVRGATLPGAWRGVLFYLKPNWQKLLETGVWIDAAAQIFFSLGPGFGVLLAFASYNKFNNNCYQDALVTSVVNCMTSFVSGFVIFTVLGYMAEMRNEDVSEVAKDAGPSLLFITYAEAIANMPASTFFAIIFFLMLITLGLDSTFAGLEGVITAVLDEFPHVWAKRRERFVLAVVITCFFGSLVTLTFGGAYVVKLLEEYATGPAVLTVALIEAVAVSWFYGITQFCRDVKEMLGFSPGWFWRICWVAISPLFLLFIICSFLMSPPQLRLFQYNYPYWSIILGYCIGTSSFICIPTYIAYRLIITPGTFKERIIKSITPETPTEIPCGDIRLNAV
Estrogen receptor, sequence (P03372 whole entry): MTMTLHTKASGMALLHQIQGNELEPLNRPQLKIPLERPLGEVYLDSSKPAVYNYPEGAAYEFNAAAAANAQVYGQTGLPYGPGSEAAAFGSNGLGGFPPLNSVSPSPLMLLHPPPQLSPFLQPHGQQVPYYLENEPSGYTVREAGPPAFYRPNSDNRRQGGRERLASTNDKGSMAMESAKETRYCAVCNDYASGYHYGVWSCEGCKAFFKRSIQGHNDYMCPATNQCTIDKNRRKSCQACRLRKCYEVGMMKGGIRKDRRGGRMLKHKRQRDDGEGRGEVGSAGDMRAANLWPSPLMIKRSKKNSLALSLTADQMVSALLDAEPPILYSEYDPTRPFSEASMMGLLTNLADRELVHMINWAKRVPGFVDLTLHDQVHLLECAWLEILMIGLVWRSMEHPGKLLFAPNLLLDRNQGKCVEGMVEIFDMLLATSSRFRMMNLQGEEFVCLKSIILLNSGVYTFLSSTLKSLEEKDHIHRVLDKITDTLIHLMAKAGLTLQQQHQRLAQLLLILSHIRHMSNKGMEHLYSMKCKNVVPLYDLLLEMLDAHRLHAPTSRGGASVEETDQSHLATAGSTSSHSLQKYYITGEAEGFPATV
D(1A) dopamine receptor, sequence (P21728 whole entry): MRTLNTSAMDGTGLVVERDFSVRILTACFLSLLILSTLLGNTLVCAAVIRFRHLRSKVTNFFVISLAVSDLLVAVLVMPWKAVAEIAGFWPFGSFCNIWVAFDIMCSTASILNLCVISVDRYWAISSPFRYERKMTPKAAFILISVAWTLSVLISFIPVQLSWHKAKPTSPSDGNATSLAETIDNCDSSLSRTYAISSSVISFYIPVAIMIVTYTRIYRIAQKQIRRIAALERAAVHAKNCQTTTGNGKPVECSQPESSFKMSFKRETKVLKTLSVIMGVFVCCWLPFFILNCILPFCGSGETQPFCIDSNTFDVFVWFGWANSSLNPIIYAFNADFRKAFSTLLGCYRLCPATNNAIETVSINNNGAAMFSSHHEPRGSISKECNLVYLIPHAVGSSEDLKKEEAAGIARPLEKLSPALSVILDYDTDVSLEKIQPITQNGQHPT
Beta-2 adrenergic receptor, sequence (P07550 whole entry): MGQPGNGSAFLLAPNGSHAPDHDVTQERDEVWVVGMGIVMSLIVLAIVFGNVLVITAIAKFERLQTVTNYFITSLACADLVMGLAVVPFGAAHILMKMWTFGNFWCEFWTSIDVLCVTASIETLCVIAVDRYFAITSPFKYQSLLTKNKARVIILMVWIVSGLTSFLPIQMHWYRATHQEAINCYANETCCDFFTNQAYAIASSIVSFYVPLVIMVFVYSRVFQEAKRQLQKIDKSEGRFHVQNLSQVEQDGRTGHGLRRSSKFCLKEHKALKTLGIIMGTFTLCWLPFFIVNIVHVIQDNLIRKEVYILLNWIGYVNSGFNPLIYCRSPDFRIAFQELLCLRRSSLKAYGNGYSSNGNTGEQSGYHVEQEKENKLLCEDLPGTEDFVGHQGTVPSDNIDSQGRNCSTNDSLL
Prostaglandin G/H synthase 2, sequence (P35354 whole entry): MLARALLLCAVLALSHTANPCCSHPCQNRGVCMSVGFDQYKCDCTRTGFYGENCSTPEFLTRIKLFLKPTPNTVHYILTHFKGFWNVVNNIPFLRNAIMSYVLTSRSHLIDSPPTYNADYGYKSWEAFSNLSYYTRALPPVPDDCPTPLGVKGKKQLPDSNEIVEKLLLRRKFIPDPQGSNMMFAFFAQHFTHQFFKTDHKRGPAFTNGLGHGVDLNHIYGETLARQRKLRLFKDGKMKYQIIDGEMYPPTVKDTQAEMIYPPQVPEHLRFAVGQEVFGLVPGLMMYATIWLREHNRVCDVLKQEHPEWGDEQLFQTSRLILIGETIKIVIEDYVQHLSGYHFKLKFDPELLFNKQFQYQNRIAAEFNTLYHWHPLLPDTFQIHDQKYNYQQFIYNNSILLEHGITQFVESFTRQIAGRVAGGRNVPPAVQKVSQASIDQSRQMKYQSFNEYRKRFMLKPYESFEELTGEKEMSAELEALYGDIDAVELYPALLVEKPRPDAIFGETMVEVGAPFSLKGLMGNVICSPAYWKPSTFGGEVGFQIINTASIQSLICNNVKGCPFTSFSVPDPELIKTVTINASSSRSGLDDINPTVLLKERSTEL
Delta-type opioid receptor, sequence (P41143 whole entry): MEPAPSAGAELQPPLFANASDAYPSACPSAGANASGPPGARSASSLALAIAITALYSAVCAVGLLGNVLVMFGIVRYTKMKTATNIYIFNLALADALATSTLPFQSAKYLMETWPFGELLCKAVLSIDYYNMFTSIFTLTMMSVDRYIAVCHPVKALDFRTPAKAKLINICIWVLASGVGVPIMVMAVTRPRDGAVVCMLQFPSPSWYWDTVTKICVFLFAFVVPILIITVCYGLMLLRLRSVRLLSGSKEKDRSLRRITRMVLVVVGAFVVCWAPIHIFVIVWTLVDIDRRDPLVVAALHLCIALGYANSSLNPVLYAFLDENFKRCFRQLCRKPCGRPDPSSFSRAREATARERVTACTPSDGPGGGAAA
Alpha-2B adrenergic receptor, sequence (P18089 whole entry): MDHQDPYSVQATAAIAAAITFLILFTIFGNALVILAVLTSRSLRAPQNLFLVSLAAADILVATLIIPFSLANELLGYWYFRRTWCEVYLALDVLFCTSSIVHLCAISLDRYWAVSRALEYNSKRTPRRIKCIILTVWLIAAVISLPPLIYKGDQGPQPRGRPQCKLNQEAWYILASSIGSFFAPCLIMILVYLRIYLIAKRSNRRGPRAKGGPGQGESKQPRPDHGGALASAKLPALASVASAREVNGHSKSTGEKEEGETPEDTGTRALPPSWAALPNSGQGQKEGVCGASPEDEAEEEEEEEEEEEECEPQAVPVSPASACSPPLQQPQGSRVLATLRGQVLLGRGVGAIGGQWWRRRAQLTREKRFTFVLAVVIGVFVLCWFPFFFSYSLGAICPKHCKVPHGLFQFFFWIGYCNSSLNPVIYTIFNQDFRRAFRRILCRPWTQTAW

## C[C@H]1Cc2c([nH]c3cc(Cl)c(F)cc23)[C@@]2(N1)C(=O)Nc1ccc(Cl)cc12 [CIPARGAMIN]
Plasmodium berghei [1]
  Survival: 30 days
[2]
  AUC(0-inf): 139 µM·h
[3]
  logD: 4.7
[4]
  Cmax: 11.7 µM
Substance-P receptor
  IC50: > 10 µM
[5]
  IC50: > 30 µM
[6]
  IC50: > 30 µM
Thromboxane A2 receptor
  IC50: > 30 µM
B2 bradykinin receptor
  IC50: > 30 µM
Plasmodium berghei [7]
  Activity: 100%
Plasmodium falciparum [8]
  IC50: 0.0028 µM
Plasmodium berghei [9]
  mean survival time at 10 mg/kg: 13.3 days
Histamine H2 receptor
  IC50: > 10 µM
[10]
  IC50: > 10 µM
Plasmodium falciparum [11]
  IC50: 0.0037 µM
[12]
  IC50: > 10 µM
[13]
  CC50 at 96 h: 14 µM
Androgen receptor
  IC50: > 30 µM
[14]
  IC50: > 10 µM
Plasmodium berghei [15]
  Activity: 50%
[16]
  IC50: > 10 µM
Plasmodium falciparum [17]
  IC50: 0.001 µM
Glucocorticoid receptor
  IC50: > 30 µM
[18]
  CC50 at 96 h: > 25 µM
[19]
  Tmax: 1 h
Estrogen receptor
  IC50: > 30 µM
[20]
  clearance: 3.48 mL/min/kg
[21]
  IC50: > 10 µM
[22]
  IC50: > 10 µM
Histamine H3 receptor
  IC50: > 10 µM
Phosphodiesterase 3
  IC50: > 10 µM
Plasmodium falciparum [23]
  IC50: 0.0109 µM
[24]
  IC50: > 30 µM
D(1A) dopamine receptor
  IC50: > 10 µM
[25]
  AUC(0-inf): 23.9 µM·h
[26]
  IC50: > 10 µM
[27]
  IC50: > 10 µM
[28]
  IC50: > 10 µM
